Experimental data published in patent US20220088102A1, “CROTON LECHLERI COMPOSITIONS AND THEIR USE IN THE TREATMENT OF CYSTIC FIBROSIS” (priority 2020, published 2022).

How the values were obtained:
[1] = Log P analysis (partition coefficient, water and n-Octanol)
Excerpt: All reference to skin includes references to epithelial skin and epithelial layer of the lungs, nose, mouth and throat. IVPT is a flux measurement that is common to those skilled in the art to evaluate topical drugs inclusive to topical delivery to the lungs, nose, mouth and throat.
Log P is an assessment of a molecule's lipophilicity, indicating how readily an analyte can partition between aqueous and organic phases. […] To reach high systemic levels, a topical drug must be permeable enough, which is defined as lipophilic enough, to partition into the lipid bilayer of the skin, but, not so lipophilic that once it is in the skin bilayer it will stay sequestered there. Lipophilicity plays a major role in determining where drugs are distributed within the body after absorption into tissues and, as a consequence, in how rapidly they are metabolized and excreted.
The Log P value is a constant defined in the following manner: Log P=log 10 (Partition Coefficient) Partition Coefficient, P=[organic]/[aqueous] Where [ ] indicates the concentration of solute in the organic and aqueous partition. […] Although log P is a constant, its value is dependent on the choice of the organic partitioning solvent and, to a lesser degree, on the conditions of measurement.

[2] = test system: methicillin-susceptible Staphylococcus aureus (MSSA) strains; assay: In vitro MIC and MBC assay, strain panel (Example 3); type: cell-based; conditions: for MIC (% relative to amount in AB-101): 50% = 10 μg/mL taspine
Excerpt: (§1) Measures included the minimum inhibitory concentration (MIC) which is the lowest concentration of AB-101 that prevents visible growth of the bacterium or pathogen, and minimum bactericidal concentration (MBC) which is the lowest concentration of an antibacterial agent required to kill a bacterium.

[3] = test system: methicillin-resistant Staphylococcus aureus (MRSA) strains; assay: as above; type: cell-based; conditions: for MBC (% relative to amount in AB-101) / MIC (% relative to amount in AB-101): MRSA; for MIC (% relative to amount in AB-101): 50% = 10 μg/mL taspine
Excerpt: as §1

DNA of the cells = conditions: Chen 1994, cited from earlier work; for healing effects: in the Ecuadorian sap
wound healing = conditions: in vivo in rats, Pieters et al 1995; cited from earlier work
[4] = highest concentration tested 50% relative to AB-101 = 10 μg/mL taspine
[5] = strain 1674606, MupirocinR, MSSA
[6] = strain 1674608, MupirocinR, MSSA
[7] = strain CDC 461, MupirocinS, MSSA
[8] = strain CDC 462, MupirocinS, MSSA
[9] = strain CDC 463, MupirocinS, MSSA
[10] = strain CDC 464, MupirocinS, MSSA
[11] = strain CDC 484, MupirocinS, MSSA
[12] = strain CDC 485, MupirocinS, MSSA

COc1ccc2c(=O)oc3c(OC)cc(CCN(C)C)c4c(=O)oc1c2c34 [Taspin]
−1.15: LogP ([1]; component of AB-101, 100%, Batch 0)
−0.94: LogP ([1]; component of AB-101 Lyophilized & Resuspended, Batch 1)
−1.71: LogP ([1]; component of AB-101 Lyophilized & Resuspended, Batch 2)
−0.90: LogP ([1]; component of AB-101, 100%, Batch 2)
−0.07: LogP ([1]; component of AB-101 Lyophilized & Resuspended, Batch X)
−1.76: LogP ([1]; component of AB-101, 100%, Batch 1)
−1.06: LogP ([1]; component of AB-101 Lyophilized & Resuspended, Batch 0)
−0.31: LogP ([1]; component of AB-101, 100%, Batch X)

COc1ccc2c(=O)oc3c(OC)cc(CCN(C)C)c4c(=O)oc1c2c34 [Taspine, taspine]
showed little healing effects: healing effects (DNA of the cells)
>50 % relative to amount in AB-101: MBC (% relative to amount in AB-101) [2, 5] | MIC (% relative to amount in AB-101) [2, 5] | MBC (% relative to amount in AB-101) [2, 6] | MIC (% relative to amount in AB-101) [2, 6] | MBC (% relative to amount in AB-101) ([2]; strain ATCC 29213, QC control) | MIC (% relative to amount in AB-101) ([2]; strain ATCC 29213, QC control) | MBC (% relative to amount in AB-101) [2, 7] | MIC (% relative to amount in AB-101) [2, 7] | MBC (% relative to amount in AB-101) [2, 8] | MIC (% relative to amount in AB-101) [2, 8] | MBC (% relative to amount in AB-101) [2, 9] | MIC (% relative to amount in AB-101) [2, 9] | MBC (% relative to amount in AB-101) [2, 10] | MIC (% relative to amount in AB-101) [2, 10] | MBC (% relative to amount in AB-101) [2, 11] | MIC (% relative to amount in AB-101) [2, 11] | MBC (% relative to amount in AB-101) [2, 12] | MIC (% relative to amount in AB-101) [2, 12] | MBC (% relative to amount in AB-101) ([3]; strain 1674607, MupirocinR) | MIC (% relative to amount in AB-101) ([3]; strain 1674607, MupirocinR) | MBC (% relative to amount in AB-101) ([3]; strain 1674611, MupirocinR) | MIC (% relative to amount in AB-101) ([3]; strain 1674611, MupirocinR) | MBC (% relative to amount in AB-101) ([3]; strain CDC 218, MupirocinR) | MIC (% relative to amount in AB-101) ([3]; strain CDC 218, MupirocinR) | MBC (% relative to amount in AB-101) ([3]; strain CDC 220, MupirocinS) | MIC (% relative to amount in AB-101) ([3]; strain CDC 220, MupirocinS) | MBC (% relative to amount in AB-101) ([3]; strain CDC 224, MupirocinR) | MIC (% relative to amount in AB-101) ([3]; strain CDC 224, MupirocinR) | MBC (% relative to amount in AB-101) ([3]; strain CDC 227, MupirocinS) | MIC (% relative to amount in AB-101) ([3]; strain CDC 227, MupirocinS) | MBC (% relative to amount in AB-101) ([3]; strain CDC 228, MupirocinR) | MIC (% relative to amount in AB-101) ([3]; strain CDC 228, MupirocinR) | MBC (% relative to amount in AB-101) ([3]; strain CDC 480, MupirocinS) | MIC (% relative to amount in AB-101) ([3]; strain CDC 480, MupirocinS) | MBC (% relative to amount in AB-101) ([3]; strain CDC 481, MupirocinS) | MIC (% relative to amount in AB-101) ([3]; strain CDC 481, MupirocinS) | MBC (% relative to amount in AB-101) ([3]; strain CDC 482, MupirocinS) | MIC (% relative to amount in AB-101) ([3]; strain CDC 482, MupirocinS) | MBC (% relative to amount in AB-101) ([3]; strain CDC 483, MupirocinS) | MIC (% relative to amount in AB-101) ([3]; strain CDC 483, MupirocinS)
does not have activity: activity as evaluated by this invitro test method (MIC, MBC) [2, 4] | activity as evaluated by this invitro test method (MIC, MBC) [3, 4]

COc1ccc([C@H]2Oc3c(OC)cc(CCCO)cc3[C@@H]2CO)cc1OC [dimethylcedrusin, 3′,4-0-dimethylcedrusin]
improved wound healing in vivo: wound healing activity (wound healing)
showed little healing effects: healing effects (DNA of the cells)

catechin
showed little effect: effect on cell proliferation (DNA of the cells)

epicatechin
showed little effect: effect on cell proliferation (DNA of the cells)
